Test results reported in patent US20210308089A1, “METHODS OF TREATING AND/OR PREVENTING VIRAL INFECTIONS AND/OR DISEASES CAUSED BY VIRUSES IN A SUBJECT IN NEED THEREOF” (priority 2020, published 2021).

Test system: patients of the REDUCE-IT and earlier EPA placebo-controlled trials
Test: Example 3: adverse events by risk ratio, icosapent ethyl vs placebo (candidate categories; infectious disease terms of interest)
Conditions: R-I

## CC/C=C\C/C=C\C/C=C\C/C=C\C/C=C\CCCC(=O)OCC [icosapent ethyl, eicosapentaenoic acid ethyl ester]
  AR: Bipolar Disease (AE table): 0.0%
  AR: Blood CPK increased (AE table): 1.6%
  AR: Blood glucose increased (AE table): 0.2%
  AR: Bone Fractures (AE table): 0.0%
  AR: Bronchiectasis (AE table): 0.1%
  AR: Bronchitis chronic (AE table): 0.2%
  AR: CKD (AE table): 1.3%
  AR: COPD (AE table): 2.7%
  AR: Carotid bruit (AE table): 0.4%
  AR: Cholestasis (AE table): 0.0%
  AR: Chrohn's Disease (AE table): 0.0%
  AR: Cognitive Decline: Attention disorders and disturbances (AE table): 0.0%
  AR: Cognitive Decline: Cognitive and attention disorders and disturbances (AE table): 0.0%
  AR: Cough (AE table): 5.9%
  AR: Decreased Appetite (AE table): 0.5%
  AR: Deep Venous Thromboembolism (AE table): 0.2%
  AR: Depression: Depressed mood disorders and disturbances (AE table): 2.9%
  AR: Depression: Depressive disorders (AE table): 2.8%
  AR: Depression: Depressive disorders - Agitated depression (AE table): 0.0%
  AR: Depression: Depressive disorders - Depression (AE table): 2.6%
  AR: Depression: Depressive disorders - Major depression (AE table): 0.0%
  AR: Depression: Depressive disorders - Persistent depressive disorder (AE table): 0.0%
  AR: Depression: Mood alterations - Depressed mood (AE table): 0.1%
  AR: Depression: Mood alterations - Depressive symptom (AE table): 0.0%
  AR: Depression: Mood alterations with depressive symptoms (AE table): 0.2%
  AR: Dermatitis psoriasiform (AE table): 0.0%
  AR: Dermatitis, allergic (AE table): 0.2%
  AR: Diabetic Nephropathy (AE table): 0.3%
  AR: ESRD (AE table): 0.1%
  AR: Ear infection (AE table): 0.9%
  AR: Embolism and Thrombosis (AE table): 1.2%
  AR: Emphysema (AE table): 0.4%
  AR: Epilepsy (AE table): 0.0%
  AR: Erectile dysfunction (AE table): 1.8%
  AR: Furuncle (AE table): 0.2%
  AR: Gastroenteritis, viral (AE table): 1.1%
  AR: Gastroesophageal reflux (AE table): 0.1%
  AR: Gingivitis (AE table): 0.2%
  AR: Glomerulonephritis and Nephrotic Syndrome (AE table): 0.0%
  AR: Guttate psoriasis (AE table): 0.0%
  AR: Helicobacter infection (AE table): 0.2%
  AR: Hepatitis C (AE table): 0.0%
  AR: Herpes Zoster (AE table): 1.8%
  AR: Herpes simplex (AE table): 0.2%
  AR: Hyperglycemia (AE table): 2.0%
  AR: Hyperkalemia (AE table): 1.1%
  AR: Hypertension (AE table): 8.1%
  AR: Hypertensive Crisis (AE Table): 0.9%
  AR: Hypokalemia (AE table): 2.0%
  AR: Hypomagnesemia (AE table): 0.9%
  AR: Infected bite (AE table): 0.1%
  AR: Influenza (AE table): 6.5%
  AR: Influenza like illness (AE table): 0.6%
  AR: Jaundice cholestatic (AE table): 0.0%
  AR: Large intestine polyps (AE table): 0.2%
  AR: Limb Fractures and Dislocations (AE table): 0.8%
  AR: Lupus (AE table): 0.0%
  AR: Microalbuminuria (AE table): 0.2%
  AR: Migraine (AE table): 0.2%
  AR: Mucosal inflammation (AE table): 0.1%
  AR: Multiple Sclerosis (AE table): 0.0%
  AR: Muscle spasms (AE table): 2.0%
  AR: NASH (AE table): 0.1%
  AR: NASH for b/l NFS >0.675 (AE table): 0.3%
  AR: NASH+Hepatic Steatosis for NFS >0.675 (AE table): 1,6%
  AR: Nasopharyngitis, Mild Severity (AE table): 7.7%
  AR: Nephrolithiasis (AE table): 2.0%
  AR: Nephropathies (AE table): 0.6%
  AR: Nephrotic Syndrome (AE table): 0.0%
  AR: Orthopnea (AE table): 0.1%
  AR: PTSD (AE table): 0.1%
  AR: Pancytopenia (AE table): 0.2%
  AR: Pneumonia (AE table): 6.6%
  AR: Proteinuria (AE table): 0.5%
  AR: Psoriasis (AE table): 0.5%
  AR: Psoriatic Conditions (AE table): 0.6%
  AR: Psychosis: Psychotic disorder NEC (AE table): 0.0%
  AR: Pulmonary Edema (AE table): 0.3%
  AR: Respiratory Failure (AE table): 0.5%
  AR: Respiratory tract infection (AE table): 1,2%
  AR: Rheumatoid Arthritis (AE table): 0.0%
  AR: Rhinitis (AE table): 0.5%
  AR: Schizophrenia NEC (AE table): 0.0%
  AR: Sepsis (AE table): 0.9%
  AR: Severe chronic obstructive pulmonary disease (AE table): 0.5%
  AR: Severe dermatitis, allergic (AE table): 0.1%
  AR: Severe gastroenteritis (AE table): 0.2%
  AR: Severe sepsis (AE table): 0.6%
  AR: Severe systemic inflammatory response syndrome (AE table): 0.1%
  AR: Severe urinary tract infection (AE table): 0.4%
  AR: Systemic inflammatory response syndrome (AE table): 0.1%
  AR: Tooth infection (AE table): 0.6%
  AR: Ulcerative Colitis (AE table): 0.0%
  AR: Upper respiratory tract infection (AE table): 7.7%
  AR: Vascular hypertensive disorder (AE table): 9.0%
  AR: Viral infection (AE table): 0.5%
  AR: Vulvovaginal mycotic infection (AE table): 0.2%
  AR: Wheezing (AE table): 0.7%
  ARR: ADHD (AE table): 0.0%
  ARR: Allergic sinusitis (AE table): −0.0%
  ARR: Alzheimer's Disease (AE table): 0.0%
  ARR: Asthma (AE table): 0.1%
  ARR: Atelectasis (AE table): −0.3%
  ARR: Bipolar Disease (AE table): −0.0%
  ARR: Blood CPK increased (AE table): −0.6%
  ARR: Blood glucose increased (AE table): −0.1%
  ARR: Bone Fractures (AE table): 0.0%
  ARR: Bronchiectasis (AE table): −0.1%
  ARR: Bronchitis chronic (AE table): −0.1%
  ARR: CKD (AE table): 0.1%
  ARR: COPD (AE table): 0.2%
  ARR: Carotid bruit (AE table): −0.3%
  ARR: Cholestasis (AE table): 0.0%
  ARR: Chrohn's Disease (AE table): −0.0%
  ARR: Cognitive Decline: Attention disorders and disturbances (AE table): 0.0%
  ARR: Cognitive Decline: Cognitive and attention disorders and disturbances (AE table): 0.0%
  ARR: Cough (AE table): 0.0%
  ARR: Decreased Appetite (AE table): 0.5%
  ARR: Deep Venous Thromboembolism (AE table): −0.1%
  ARR: Depression: Depressed mood disorders and disturbances (AE table): 0.3%
  ARR: Depression: Depressive disorders (AE table): 0.3%
  ARR: Depression: Depressive disorders - Agitated depression (AE table): 0.0%
  ARR: Depression: Depressive disorders - Depression (AE table): 0.2%
  ARR: Depression: Depressive disorders - Major depression (AE table): 0.0%
  ARR: Depression: Depressive disorders - Persistent depressive disorder (AE table): 0.0%
  ARR: Depression: Mood alterations - Depressed mood (AE table): 0.0%
  ARR: Depression: Mood alterations - Depressive symptom (AE table): −0.0%
  ARR: Depression: Mood alterations with depressive symptoms (AE table): −0.0%
  ARR: Dermatitis psoriasiform (AE table): 0.0%
  ARR: Dermatitis, allergic (AE table): −0.2%
  ARR: Diabetic Nephropathy (AE table): −0.0%
  ARR: ESRD (AE table): −0.0%
  ARR: Ear infection (AE table): −0.2%
  ARR: Embolism and Thrombosis (AE table): 0.1%
  ARR: Emphysema (AE table): −0.2%
  ARR: Epilepsy (AE table): 0.0%
  ARR: Erectile dysfunction (AE table): −0.4%
  ARR: Furuncle (AE table): −0.1%
  ARR: Gastroenteritis, viral (AE table): −0.3%
  ARR: Gastroesophageal reflux (AE table): −0.1%
  ARR: Gingivitis (AE table): −0.1%
  ARR: Glomerulonephritis and Nephrotic Syndrome (AE table): −0.1%
  ARR: Guttate psoriasis (AE table): 0.0%
  ARR: Helicobacter infection (AE table): −0.1%
  ARR: Hepatitis C (AE table): 0.0%
  ARR: Herpes Zoster (AE table): −0.1%
  ARR: Herpes simplex (AE table): −0.1%
  ARR: Hyperglycemia (AE table): −0.5%
  ARR: Hyperkalemia (AE table): −0.6%
  ARR: Hypertension (AE table): −0.6%
  ARR: Hypertensive Crisis (AE Table): −0.3%
  ARR: Hypokalemia (AE table): 0.1%
  ARR: Hypomagnesemia (AE table): −0.3%
  ARR: Infected bite (AE table): −0.0%
  ARR: Influenza (AE table): −0.2%
  ARR: Influenza like illness (AE table): −0.1%
  ARR: Jaundice cholestatic (AE table): 0.1%
  ARR: Large intestine polyps (AE table): −0.2%
  ARR: Limb Fractures and Dislocations (AE table): −0.1%
  ARR: Lupus (AE table): −0.0%
  ARR: Microalbuminuria (AE table): −0.3%
  ARR: Migraine (AE table): 0.2%
  ARR: Mucosal inflammation (AE table): −0.0%
  ARR: Multiple Sclerosis (AE table): −0.0%
  ARR: Muscle spasms (AE table): −1.1%
  ARR: NASH (AE table): −0.1%
  ARR: NASH for b/l NFS >0.675 (AE table): −0.4%
  ARR: NASH+Hepatic Steatosis for NFS >0.675 (AE table): −0.5%
  ARR: Nasopharyngitis, Mild Severity (AE table): −0.2%
  ARR: Nephrolithiasis (AE table): 0.1%
  ARR: Nephropathies (AE table): −0.2%
  ARR: Nephrotic Syndrome (AE table): −0.0%
  ARR: Orthopnea (AE table): −0.1%
  ARR: PTSD (AE table): −0.0%
  ARR: Pancytopenia (AE table): −0.1%
  ARR: Pneumonia (AE table): −0.3%
  ARR: Proteinuria (AE table): −0.2%
  ARR: Psoriasis (AE table): 0.3%
  ARR: Psoriatic Conditions (AE table): 0.3%
  ARR: Psychosis: Psychotic disorder NEC (AE table): −0.0%
  ARR: Pulmonary Edema (AE table): −0.2%
  ARR: Respiratory Failure (AE table): −0.0%
  ARR: Respiratory tract infection (AE table): −0.1%
  ARR: Rheumatoid Arthritis (AE table): −0.1%
  ARR: Rhinitis (AE table): −0.1%
  ARR: Schizophrenia NEC (AE table): −0.0%
  ARR: Sepsis (AE table): −0.2%
  ARR: Severe chronic obstructive pulmonary disease (AE table): −0.1%
  ARR: Severe dermatitis, allergic (AE table): −0.1%
  ARR: Severe gastroenteritis (AE table): −0.1%
  ARR: Severe sepsis (AE table): −0.2%
  ARR: Severe systemic inflammatory response syndrome (AE table): −0.1%
  ARR: Severe urinary tract infection (AE table): −0.2%
  ARR: Systemic inflammatory response syndrome (AE table): −0.1%
  ARR: Tooth infection (AE table): −0.2%
  ARR: Ulcerative Colitis (AE table): −0.0%
  ARR: Upper respiratory tract infection (AE table): −0.2%
  ARR: Vascular hypertensive disorder (AE table): −0.8%
  ARR: Vulvovaginal mycotic infection (AE table): −0.1%
  ARR: Wheezing (AE table): −0.3%
  NNT: ADHD (AE table): −8362005
  NNT: Allergic sinusitis (AE table): 2046
  NNT: Alzheimer's Disease (AE table): −3344802
  NNT: Asthma (AE table): −1019
  NNT: Atelectasis (AE table): 372
  NNT: Bipolar Disease (AE table): 2045
  NNT: Blood CPK increased (AE table): 164
  NNT: Blood glucose increased (AE table): 682
  NNT: Bone Fractures (AE table): −4088
  NNT: Bronchiectasis (AE table): 1364
  NNT: Bronchitis chronic (AE table): 1023
  NNT: CKD (AE table): −680
  NNT: COPD (AE table): −453
